Assay results published in patent US20110230476A1, “PI3 KINASE INHIBITORS AND USES THEREOF” (AVILA THERAPEUTICS, INC., priority 2009, published 2011).

Experiments:
PI3Kα (p110α/p85α) = target: T1, PI3Kα (p110α/p85α) (Homo sapiens, UniProt P42336); assay: HTRF assay, potency against active PI3Kα; format: biochemical; details: HTRF; [ATP]=50 μM, [di-C8-PIP2]=10 μM; 30 min pre-incubation; read-out: PI3Kα Inhibition
T1 construct: purchased BPS Bioscience (San Diego, Calif.) or Millipore (Billerica, Mass.)
Outline: (§1)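 IC50 came from a variable-slope fit of % inhibition, calculated from the HTRF emission ratio relative to wells with and without enzyme. Reactions with the active enzyme complex ran 30-60 minutes at 25 °C after ATP addition before stop and detection reagents.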

PI3Kβ (p110β/p85α) = target: T2, PI3Kβ (p110β/p85α) (Homo sapiens, UniProt P42338); assay: HTRF assay, potency against active PI3Kβ; format: biochemical; details: [ATP]=50 μM, [di-C8-PIP2]=10 μM, 30 min pre-incubation, read-out: PI3Kβ Inhibition
T2 construct: purchased BPS Bioscience (San Diego, Calif.) or Millipore (Billerica, Mass.)
Outline: as §1

PI3K = PI3K HCT116 cellular assay (Western blot); format: cell-based; details: Homo sapiens, HCT-116, HCT116 colon cancer cells, 1 hour incubation, read-out: PI3K Inhibition
Protocol: PI3K HCT116 Cellular Assay
Selected compounds were assayed in HCT116 colon cancer cells. […] Cells were then washed with PBS, lysed and the protein lysates were then recovered and analyzed by Western blot.

Phospho-Akt(Ser473) [1] = assay: Dose response in SKOV3 cells as determined by Western blot; format: cell-based; details: Homo sapiens, SK-OV-3, 1 hr, Phospho-Akt normalized to total Akt, read-out: Immunoblot
Outline: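 SKOV3 cells in DMEM/10% FBS were treated with compound in 0.1% DMSO for 1 hr, then lysed. 50 ug protein was immunoblotted for Phospho-Akt(Ser473) and total Akt with fluorescent read-out. Phospho-Akt was normalized to total Akt and expressed as percent of untreated signal.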

Phospho-Akt(Ser473) [2] = assay: Dose response in SKOV3 cells as determined by in-cell Western; format: cell-based; details: Homo sapiens, SK-OV-3
Outline: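 SKOV3 cells treated with compound for 1 hr, then formaldehyde-fixed, permeabilised and stained overnight for phospho-Akt(Ser473) with anti-tubulin as a reference. Infrared secondary antibodies read at 680 and 800 nm channels by in-cell Western imaging.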

SKOV-3 tumors = assay: Tumor growth inhibition in vivo; details: nude mice, subcutaneous SKOV-3 tumors; GDC-941 orally, II-a-3 I.P., 50-100 mg/Kg/QD, 21 days
Protocol: Tumor Growth Inhibition In Vivo
The in vivo experiment was performed at Piedmont Research Center (Research Triangle Park, N.C.). Nude mice were implanted with SKOV-3 tumors subcutaneously. […] Dosing continued for 21 days. Tumor volume was measured twice a week.

PI3 kinase = assay: Comparison of covalent and non-covalent inhibitors (Tables 18 and 19): prolonged PD, mechanism; details: Table 19
Protocol: “A” designates ≦10 nM; “B” designates 10-100 nM; and “C” designates 100-1000 nM

[3] = SKOV3 cells, 1 hr, read-out: pAKT Inhibition in cell Western

T2 sequence (P42338 whole entry): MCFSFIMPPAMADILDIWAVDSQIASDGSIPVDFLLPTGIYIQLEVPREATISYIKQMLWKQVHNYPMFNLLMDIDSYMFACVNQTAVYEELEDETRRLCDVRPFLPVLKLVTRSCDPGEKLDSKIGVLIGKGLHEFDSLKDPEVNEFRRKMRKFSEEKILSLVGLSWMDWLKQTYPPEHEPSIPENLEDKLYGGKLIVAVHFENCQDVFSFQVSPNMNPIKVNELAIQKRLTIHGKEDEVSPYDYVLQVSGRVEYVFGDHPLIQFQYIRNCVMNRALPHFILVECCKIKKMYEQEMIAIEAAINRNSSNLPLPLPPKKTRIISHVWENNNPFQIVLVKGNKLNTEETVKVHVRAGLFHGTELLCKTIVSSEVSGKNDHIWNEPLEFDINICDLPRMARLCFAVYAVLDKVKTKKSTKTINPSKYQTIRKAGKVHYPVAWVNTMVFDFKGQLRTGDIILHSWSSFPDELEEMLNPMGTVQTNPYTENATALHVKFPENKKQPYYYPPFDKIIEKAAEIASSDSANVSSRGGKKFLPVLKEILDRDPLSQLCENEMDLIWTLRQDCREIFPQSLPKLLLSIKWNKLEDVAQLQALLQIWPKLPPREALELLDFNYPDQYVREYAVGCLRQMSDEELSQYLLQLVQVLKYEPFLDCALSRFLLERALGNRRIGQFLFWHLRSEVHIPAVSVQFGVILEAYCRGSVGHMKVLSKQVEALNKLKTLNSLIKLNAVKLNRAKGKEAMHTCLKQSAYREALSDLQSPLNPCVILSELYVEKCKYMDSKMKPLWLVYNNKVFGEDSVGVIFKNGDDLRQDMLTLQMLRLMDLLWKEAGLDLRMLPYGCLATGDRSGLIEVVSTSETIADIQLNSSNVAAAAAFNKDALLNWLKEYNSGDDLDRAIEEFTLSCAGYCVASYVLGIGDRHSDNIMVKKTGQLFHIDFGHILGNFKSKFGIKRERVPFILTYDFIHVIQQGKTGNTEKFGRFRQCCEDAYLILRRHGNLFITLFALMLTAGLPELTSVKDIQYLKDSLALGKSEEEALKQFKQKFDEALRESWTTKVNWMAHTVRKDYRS
T2 sequence (P27986 whole entry partner): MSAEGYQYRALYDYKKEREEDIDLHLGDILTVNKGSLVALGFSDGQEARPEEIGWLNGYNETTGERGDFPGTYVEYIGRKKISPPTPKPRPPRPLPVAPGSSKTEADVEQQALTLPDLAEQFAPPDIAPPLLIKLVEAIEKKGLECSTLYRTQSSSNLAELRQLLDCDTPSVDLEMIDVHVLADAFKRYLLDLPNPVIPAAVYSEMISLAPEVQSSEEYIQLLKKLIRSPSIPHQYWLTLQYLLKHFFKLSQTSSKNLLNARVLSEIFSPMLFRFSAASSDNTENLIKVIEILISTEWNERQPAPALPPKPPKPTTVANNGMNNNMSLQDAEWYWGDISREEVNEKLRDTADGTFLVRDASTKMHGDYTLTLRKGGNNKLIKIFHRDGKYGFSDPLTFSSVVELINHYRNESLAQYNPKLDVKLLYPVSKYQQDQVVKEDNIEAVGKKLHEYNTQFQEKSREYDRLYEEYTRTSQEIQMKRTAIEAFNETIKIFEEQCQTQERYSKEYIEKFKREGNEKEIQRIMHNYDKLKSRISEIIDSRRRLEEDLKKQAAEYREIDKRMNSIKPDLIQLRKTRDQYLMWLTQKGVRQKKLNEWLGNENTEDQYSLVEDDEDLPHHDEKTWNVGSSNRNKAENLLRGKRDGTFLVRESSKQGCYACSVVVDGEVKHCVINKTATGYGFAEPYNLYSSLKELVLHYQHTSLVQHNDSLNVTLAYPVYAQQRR
T1 sequence (P42336 whole entry): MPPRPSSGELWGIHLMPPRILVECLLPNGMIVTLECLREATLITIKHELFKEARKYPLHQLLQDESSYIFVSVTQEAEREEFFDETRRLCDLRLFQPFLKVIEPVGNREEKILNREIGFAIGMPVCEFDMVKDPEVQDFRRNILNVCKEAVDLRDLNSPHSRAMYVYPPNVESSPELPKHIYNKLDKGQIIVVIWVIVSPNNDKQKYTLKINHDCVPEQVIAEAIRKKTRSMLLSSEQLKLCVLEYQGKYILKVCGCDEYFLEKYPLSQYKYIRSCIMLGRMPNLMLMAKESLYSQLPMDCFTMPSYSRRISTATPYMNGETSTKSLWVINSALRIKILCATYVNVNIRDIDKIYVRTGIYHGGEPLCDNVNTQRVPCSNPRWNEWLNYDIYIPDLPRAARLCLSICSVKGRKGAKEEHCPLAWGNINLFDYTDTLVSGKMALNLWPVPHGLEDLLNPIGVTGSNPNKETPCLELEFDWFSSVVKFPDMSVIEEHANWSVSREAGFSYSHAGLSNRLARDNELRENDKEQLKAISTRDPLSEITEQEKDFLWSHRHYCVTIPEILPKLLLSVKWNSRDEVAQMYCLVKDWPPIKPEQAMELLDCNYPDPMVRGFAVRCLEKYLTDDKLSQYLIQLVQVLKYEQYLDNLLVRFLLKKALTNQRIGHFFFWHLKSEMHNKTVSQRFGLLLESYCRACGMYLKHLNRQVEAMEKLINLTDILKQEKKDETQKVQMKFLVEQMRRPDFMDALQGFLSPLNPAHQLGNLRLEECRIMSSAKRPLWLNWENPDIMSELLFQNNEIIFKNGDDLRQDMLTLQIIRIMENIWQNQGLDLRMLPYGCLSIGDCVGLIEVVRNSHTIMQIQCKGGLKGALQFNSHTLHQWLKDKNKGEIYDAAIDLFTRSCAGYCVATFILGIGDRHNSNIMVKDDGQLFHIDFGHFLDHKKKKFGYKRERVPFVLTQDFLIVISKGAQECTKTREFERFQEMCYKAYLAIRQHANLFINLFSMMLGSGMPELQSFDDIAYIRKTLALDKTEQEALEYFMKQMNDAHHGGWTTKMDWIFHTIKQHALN
T1 sequence (P27986 whole entry partner): as the sequence (P27986 whole entry partner) above

Row | IC50 (PI3Kα (p110α/p85α)) | EC50 (PI3K) | Compound | IC50 (PI3Kβ (p110β/p85α)) | EC50 (Phospho-Akt(Ser473) [1]) | EC50 (Phospho-Akt(Ser473) [2]; [3]) | EC50 (Phospho-Akt(Ser473) [2]; Table 19, assay not given, classes agree with Table 23, read-out: EC50 pAkt^Ser473) | tumor growth (SKOV-3 tumors) | Prolonged PD (PI3 kinase)
1 | < 10 nM | < 20 nM | C/C=C/C(=O)CCC(=O)N1CCN(Cc2cc3nc(-c4cccc5[nH]ncc45)nc(N4CCOCC4)c3s2)CC1 [II-a-36, (E)-1-(4-((2-(1H-indazol-4-yl)-4-morpholinothieno[3,2-d]pyrimidin-6-yl)methyl)piperazin-1-yl)hept-5-ene-1,4-dione] | > 1000 nM | 10 to 100 nM | 100 to 1000 nM | – | – | –
2 | – | – | CC(C)=CC(=O)CCC(=O)N1CCN(Cc2cc3nc(-c4cccc5[nH]ncc45)nc(N4CCOCC4)c3s2)CC1 [II-a-3, 1-(4-((2-(1H-indazol-4-yl)-4-morpholinothieno[3,2-d]pyrimidin-6-yl)methyl)piperazin-1-yl)-6-methylhept-5-ene-1,4-dione] | > 1000 nM | 10 to 100 nM | ≤ 10 nM | ≤ 10 nM | Inhibition of tumor growth | Yes
